Experiments:
[1] = test system: bleomycin (BLM) induced unilateral lung fibrosis model in Sprague Dawley (SD) rats; experiment: Bleomycin-induced SD rat unilateral lung fibrosis model for IPF; format: in vivo
Method: The purpose of this study was to evaluate the therapeutic effect of FC-4 on bleomycin (BLM) induced unilateral lung fibrosis model in Sprague Dawley (SD) rats. Male SD rats (n=50) were randomly divided into the following groups: Sham group (n=10), Model group (n=10), FC-4 administered at 10 mg/kg/day group (n=10), FC-4 administered at 30 mg/kg/day group (n=10), and FC-4 administered at 100 mg/kg/day group (n=10). All test drugs were delivered orally starting from day 8 of modeling for 14 days. Saline solution was taken for sham and model groups once a day, and FC-4 twice a day for drug treatment groups. Rats were anesthetized and the trachea was exposed. Saline was administrated via direct intra-trachea injection in the sham group, and the other groups' animals received a BLM injection at a dose of 3 mg/kg in volume of 1.0 ml/kg. All animals were processed using a non invasive lung function test with EMMS Whole Body Plethysmography system at pre-modeling, and at days 3, 7, 11, 14, 18 and 21 of modeling. One day after the last drug delivery, the left lung of all animals was perfused with 10% formalin, and processed for pathology analysis.
Animals: Species and quality level: SD rats, SPF grade. Gender and number: male, 93. Purchasing body weight range: 260-280 g. […]

[2] = biological target: T1, recombinant human MMP-12 catalytic domain (Homo sapiens, UniProt P39900); experiment: MMP-12 inhibitory assay (fluorogenic MMP substrate cleavage); format: biochemical; details: readout at 30 minutes
T1 construct: recombinant human MMP-12 catalytic domain; purchased Enzo BM1L-SE138
T1 sequence (P39900 106-263 limits assumed): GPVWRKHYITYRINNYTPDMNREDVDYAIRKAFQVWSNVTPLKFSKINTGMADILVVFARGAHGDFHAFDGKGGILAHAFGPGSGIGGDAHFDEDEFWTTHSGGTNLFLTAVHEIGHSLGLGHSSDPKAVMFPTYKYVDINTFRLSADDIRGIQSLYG
Method: The inhibitory effect of compounds on the rate of cleaving fluorogenic MMP substrate (Enzo, BML-P128) by recombinant human MMP-12 catalytic domain (Enzo, BM1L-SE138) was carried out by methods known in the art. Briefly, to each well of a 96-well black opaque plate, all the reagents were sequentially added by pipetting, and the final reaction contained 4 nM of recombinant human MMP-12 catalytic domain, 4 μM of fluorogenic MMP substrate, and various concentrations (0.15 nM to 10,000 nM) of tested compound dilutions in HEPES buffer (pH 7.5) containing 10 mM of CaCl2), 0.01% Brij® 35 (polyoxyethylene (23) lauryl ether), and 0.1 mg/ml of BSA.
The enzyme and compounds were pre-incubated on a shaker to mix in wells. After an hour of mixing, fluorogenic substrate was added to each well. Reaction without enzyme was used as a blank control in the plate. The plate was then fed into a plate reader to measure fluorescence intensity at Excitation/Emission wavelengths of 340 nm/440 nm every 10 mins for at least 1 hour at 37° C. The IC50 of each compound in MMP-12 inhibition was determined by using a readout obtained at time point 30 minutes.

IC50 [2]	SMILES	Share of the Ashcraft score that was score 3 ([1]; all drug treatment groups)	Physical and behavior abnormality ([1]; all tested rats during the experiment)
–	Cc1cc(COc2ccc(Sc3ccoc3C3NC(=O)NC3=O)cc2)ccn1 (stereo not drawn) [FC-4]	~80%	no obviously physical and behavior abnormality change
> 1000 nM	Cc1cccc(COc2ccc(Sc3ccoc3C3NC(=O)NC3=O)cc2)[n+]1[O-] (stereo not drawn) [FC-5]	–	–
10 to 100 nM	Cc1cc(CCc2ccc(Sc3ccoc3C3NC(=O)NC3=O)cc2)ccn1 (stereo not drawn) [FC-30]	–	–
10 to 100 nM	Cc1cc(CNc2ccc(Sc3ccoc3C3NC(=O)NC3=O)cc2)ccn1 (stereo not drawn) [FC-31]	–	–
100 to 1000 nM	Cc1cc(NCc2ccc(Sc3ccoc3C3NC(=O)NC3=O)cc2)ccn1 (stereo not drawn) [FC-34]	–	–
